How the values were obtained:
[1] = target: T1, rat P2X3 receptor (Rattus norvegicus, UniProt P49654); assay: P2X3 FLIPR (Fluorometric Imaging Plate Reader) assay; format: cell-based; settings: CHO-K1 cells transfected with cloned rat P2X3; agonist α,β-meATP 1 μM; Fluo-3 calcium fluorescence
T1 construct: expressed in transfected cells; host or cells: CHO-K1
T1 sequence (P49654 1-397): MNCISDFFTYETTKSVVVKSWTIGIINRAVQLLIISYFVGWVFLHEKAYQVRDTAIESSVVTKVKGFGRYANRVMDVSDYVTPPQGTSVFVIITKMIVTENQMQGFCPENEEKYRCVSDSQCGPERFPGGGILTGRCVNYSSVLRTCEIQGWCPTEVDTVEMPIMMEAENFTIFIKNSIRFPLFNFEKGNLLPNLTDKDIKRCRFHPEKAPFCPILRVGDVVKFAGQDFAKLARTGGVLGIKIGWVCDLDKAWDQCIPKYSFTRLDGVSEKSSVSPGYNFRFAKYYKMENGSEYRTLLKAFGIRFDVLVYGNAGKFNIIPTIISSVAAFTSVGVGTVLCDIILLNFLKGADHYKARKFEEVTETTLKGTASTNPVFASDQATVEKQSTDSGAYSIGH
Protocol: (§1) CHO-Kl cells were transfected with cloned rat P2X3 or human P2X2/3 receptor subunits and passaged in flasks. 18-24 hours before the FLIPR experiment, cells were released from their flasks, centrifuged, and resuspended in nutrient medium at 2.5×10^5 cells/ml. The cells were aliquoted into black-walled 96-well plates at a density of 50,000 cells/well and incubated overnight in 5% CO2 at 37° C. On the day of the experiment, cells were washed in FLIPR buffer (calcium- and magnesium-free Hank's balanced salt solution, 10 mM HEPES, 2 mM CaCl2, 2.5 mM probenecid; FB). Each well received 100 μl FB and 100 μl of the fluorescent dye Fluo-3 AM [2 μM final conc.]. […]
(§2) Test compounds (dissolved in DMSO at 10 mM and serially diluted with FB) or vehicle were added to each well (25 μl of a 4× solution) and allowed to equilibrate for 20 minutes at room temperature. The plates were then placed in the FLIPR and a baseline fluorescence measurement (excitation at 488 nm and emission at 510-570 nm) was obtained for 10 seconds before a 100 μl/well agonist or vehicle addition. […] Fluorescence was measured for an additional 2 minutes at 1 second intervals after agonist addition. A final addition of ionomycin (5 μM, final concentration) was made to each well of the FLIPR test plate to establish cell viability and maximum fluorescence of dye-bound cytosolic calcium. […]

[2] = target: T2, human P2X2/3 receptor (Homo sapiens, UniProt P56373+Q9UBL9); assay: P2X2/3 FLIPR (Fluorometric Imaging Plate Reader) assay; format: cell-based; settings: CHO-K1 cells transfected with human P2X2/3; agonist α,β-meATP 5 μM; Fluo-3 calcium fluorescence
T2 construct: expressed in transfected cells; host or cells: CHO-K1
T2 sequence (Q9UBL9 1-471): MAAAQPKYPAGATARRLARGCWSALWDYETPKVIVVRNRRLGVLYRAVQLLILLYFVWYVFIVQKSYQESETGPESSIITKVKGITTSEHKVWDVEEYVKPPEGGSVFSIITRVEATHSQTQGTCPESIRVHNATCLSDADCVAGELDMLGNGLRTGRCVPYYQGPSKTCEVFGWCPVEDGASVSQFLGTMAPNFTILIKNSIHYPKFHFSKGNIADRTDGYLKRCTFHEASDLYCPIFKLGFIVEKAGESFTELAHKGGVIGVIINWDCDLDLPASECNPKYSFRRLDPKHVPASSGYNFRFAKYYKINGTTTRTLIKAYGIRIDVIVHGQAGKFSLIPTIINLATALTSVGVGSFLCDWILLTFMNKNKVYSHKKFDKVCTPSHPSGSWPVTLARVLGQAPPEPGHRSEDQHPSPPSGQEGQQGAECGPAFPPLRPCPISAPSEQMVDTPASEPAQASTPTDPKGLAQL
T2 sequence (P56373 1-397): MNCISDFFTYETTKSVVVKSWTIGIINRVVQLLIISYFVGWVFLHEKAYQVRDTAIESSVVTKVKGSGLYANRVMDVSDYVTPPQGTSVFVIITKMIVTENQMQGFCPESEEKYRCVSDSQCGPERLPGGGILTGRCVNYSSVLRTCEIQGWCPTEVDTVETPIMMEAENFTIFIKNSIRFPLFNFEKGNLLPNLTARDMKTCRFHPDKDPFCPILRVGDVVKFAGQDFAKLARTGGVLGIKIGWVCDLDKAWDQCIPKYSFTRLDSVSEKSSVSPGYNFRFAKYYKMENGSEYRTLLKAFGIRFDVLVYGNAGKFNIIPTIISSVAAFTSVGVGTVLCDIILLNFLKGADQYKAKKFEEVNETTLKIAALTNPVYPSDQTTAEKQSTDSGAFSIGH
Protocol: as §1, §2

Row | pIC50 for the P2X3 receptor [1] | pKi for the P2X2/3 receptor [2] | SMILES
1 | approximately 8.24 | – | Cc1ccc(-c2cc(C(=O)N[C@@H](C)CO)cc(-c3scnc3C)c2)cc1 [Compound 45, (S)-4′-Methyl-5-(4-methyl-thiazol-5-yl)-biphenyl-3-carboxylic acid (2-hydroxy-1-methyl-ethyl)-amide]
2 | – | approximately 7.30 | Cc1ccc(-c2cc(C(=O)N[C@H](C)CN3CCOCC3)cc(-c3scnc3C)c2)cc1 [Compound 43, (R)-4′-Methyl-5-(4-methyl-thiazol-5-yl)-biphenyl-3-carboxylic acid (1-methyl-2-morpholin-4-yl-ethyl)-amide]

From patent publication US9849136B2, “Thiazole and oxazole-substituted arylamides as P2X3 and P2X2/3 antagonists” (Roche Palo Alto LLC, priority 2006, dated 2017)
